Assay results: patent publication US20240277658A1, “NLRP3 ACTIVATORS FOR USE IN THE TREATMENT OF INFECTIOUS DISEASES OR CANCER BY ACTIVATING NLRP3 INFLAMMASOME” (ALBERT-LUDWIGS-UNIVERSITÄT FREIBURG, priority 2020, published 2024)
Values joined by “and” are separate entries in the source; they are usually repeats but may differ in a detail not shown here. Equal values may be shown once. Read-outs that look alike come from different tables or passages of the source.

Key:
NLRP3 inflammasome = molecular target: T1, NLRP3 inflammasome (Mus musculus, UniProt Q8R4B8); test: IL-1β release from LPS-primed BMDCs (ELISA) as readout of NLRP3 inflammasome activation; format: cell-based; conditions: compound 50 μM; for Average (% positive control): IL-1β release, positive control nigericin 5 μM; for Average IL-1β / IL-1β: LPS-primed BMDCs; for IL-1β: single replicates
T1 construct: endogenous in cells; host or cells: primary mouse bone marrow-derived dendritic cells (BMDCs), LPS-primed
Outline: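 NLRP3 inflammasome activation was read out as IL-1β released into the supernatant, measured by ELISA. Murine BMDCs were primed with LPS (50 ng ml^−1, 3 hours), then incubated with compounds for 3 hours, with each condition run in three technical replicates. Nigericin at 5 μM acted as the positive control activator, and IL-1β release was also expressed as a percentage of that control.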

BMDCs = test: LDH release (lytic cell death, pyroptosis) from LPS-primed BMDCs; format: cell-based, mouse; conditions: compound 50 μM; for Average (% positive control): LDH release, positive control nigericin 5 μM; for cytotoxicity at 50 µM: Mus musculus, BMDC, LPS-primed BMDCs
Outline: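 LDH released into medium, detected colorimetrically, served as the pyroptosis read-out in triplicate. LPS-primed (50 ng ml^−1, 3 h) murine bone marrow-derived dendritic cells received test compounds, typically 50 μM, or nigericin (5 μM), R837 or CL097 (100 μM) for 3 hours.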

[1] = read-out: Average LDH release (% of max.)
[2] = single replicates, read-out: LDH release (% of max.)

T1 sequence (Q8R4B8 whole entry): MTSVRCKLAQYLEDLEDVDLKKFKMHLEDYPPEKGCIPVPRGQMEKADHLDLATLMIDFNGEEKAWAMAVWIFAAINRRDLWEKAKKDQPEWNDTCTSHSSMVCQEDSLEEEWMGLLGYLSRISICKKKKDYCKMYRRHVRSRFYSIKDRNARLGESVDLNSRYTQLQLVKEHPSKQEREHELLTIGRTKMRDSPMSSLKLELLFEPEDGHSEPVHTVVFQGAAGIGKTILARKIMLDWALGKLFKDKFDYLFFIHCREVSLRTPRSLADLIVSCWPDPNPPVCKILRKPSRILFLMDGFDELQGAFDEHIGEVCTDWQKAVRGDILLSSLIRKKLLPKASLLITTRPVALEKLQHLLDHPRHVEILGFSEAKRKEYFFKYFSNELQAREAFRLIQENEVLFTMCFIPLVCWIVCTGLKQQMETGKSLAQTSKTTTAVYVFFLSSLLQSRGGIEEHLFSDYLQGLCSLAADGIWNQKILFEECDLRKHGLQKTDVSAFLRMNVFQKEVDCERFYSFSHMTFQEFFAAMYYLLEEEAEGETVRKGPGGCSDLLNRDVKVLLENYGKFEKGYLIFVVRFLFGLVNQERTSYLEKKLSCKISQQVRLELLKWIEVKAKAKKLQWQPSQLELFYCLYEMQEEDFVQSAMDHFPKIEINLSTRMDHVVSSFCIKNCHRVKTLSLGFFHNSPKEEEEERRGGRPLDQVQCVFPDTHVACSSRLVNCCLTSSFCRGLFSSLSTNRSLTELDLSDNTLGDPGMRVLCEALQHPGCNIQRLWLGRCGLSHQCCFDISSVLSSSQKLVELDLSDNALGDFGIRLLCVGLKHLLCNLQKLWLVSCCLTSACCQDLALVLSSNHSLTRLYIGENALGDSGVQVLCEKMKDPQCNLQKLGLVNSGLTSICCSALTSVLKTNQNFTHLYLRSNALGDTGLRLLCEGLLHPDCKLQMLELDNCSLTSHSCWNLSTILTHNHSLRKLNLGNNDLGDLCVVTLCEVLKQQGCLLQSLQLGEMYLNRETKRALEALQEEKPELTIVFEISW

Compound | Average (% positive control) (NLRP3 inflammasome) | Average IL-1β (NLRP3 inflammasome) [ng/mL] | IL-1β (NLRP3 inflammasome) | Average (% positive control) (BMDCs) | cytotoxicity at 50 µM (BMDCs; [1]) [%] | cytotoxicity at 50 µM (BMDCs; [2]) [%]
CC(C)CC(NC(=O)Nc1cccc(N2CCNC2=O)c1)c1nc(-c2nnc[nH]2)no1 (stereo not drawn) [L01.010, 3-{3-methyl-1-[3-(4H-1,2,4-triazol-3-yl)-1,2,4-oxadiazol-5-yl]butyl}-1-[3-(2-oxoimidazolidin-1-yl)phenyl]urea] | 0.822 | 0.059 | 0.065 ng/mL and 0.059 ng/mL and 0.053 ng/mL | 7.822 | 5.72 | 5.64
CCOc1ccc(NC(=O)NCc2nc(-c3cccc(OC)c3)no2)cc1OCC [L01.013, 1-(3,4-diethoxyphenyl)-3-{[3-(3-methoxyphen-yl)-1,2,4-oxadiazol-5-yl]methyl}urea] | 1.677 | 0.120 | 0.118 ng/mL and 0.126 ng/mL and 0.117 ng/mL | 10.303 | 7.54 | 8.75
O=C(Nc1ccccc1)Nc1ccc(NC(=O)C(F)F)cc1 [L01.016, 2,2-difluoro-N-{4-[(phenylcarbamoyl)-amino]phenyl}acet-amide] | 10.857 | 0.778 | 0.755 ng/mL and 0.723 ng/mL and 0.857 ng/mL | 17.216 | 12.6 | 11.6
O=C(Nc1ccccc1)Nc1cccc(Br)c1 [L01.020, 3-(3-bromophenyl)-1-phenylurea] | 3.256 | 0.233 | 0.236 ng/mL and 0.231 ng/mL and 0.233 ng/mL | 14.712 | 10.8 | 11.6
CC(C)C(=O)Nc1cccc(NC(=O)Nc2ccccc2)c1 [L01.023, 2-methyl-N-{3-[(phenyl-carbamoyl)amino]phen-yl}propanamide] | 1.021 | 0.073 | 0.065 ng/mL and 0.075 ng/mL and 0.080 ng/mL | 7.611 | 5.57 | 5.1
Cc1cc(NC(=O)Nc2ccccc2)ccc1N1CCCC1 [L01.025, 3-[3-methyl-4-(pyrrol-idin-1-yl)phenyl]-1-phenylurea] | 5.130 | 0.368 | 0.333 ng/mL and 0.280 ng/mL and 0.490 ng/mL | 19.631 | 14.4 | 15
COc1ccc(NC(=O)Nc2ccccc2)cc1Cl [L01.026, 3-(3-chloro-4-methoxy-phenyl)-1-phenylurea] | 6.911 | 0.495 | 0.452 ng/mL and 0.473 ng/mL and 0.562 ng/mL | 14.776 | 10.8 | 9.23
O=C(Nc1ccccc1)Nc1cccc(NC(=O)c2ccoc2)c1 [L01.027, N-{3-[(phenylcarbamo-yl)amino]phenyl}furan-3-carboxamide] | 2.451 | 0.176 | 0.149 ng/mL and 0.197 ng/mL and 0.181 ng/mL | 9.387 | 6.87 | 5.2
Cc1ccc(NC(=O)Nc2ccccc2)cc1NC(=O)NC1CC1 [L01.028, 3-cyclopropyl-1-{2-methyl-5-[(phenyl-carbamoyl)amino]-phenyl}urea] | 9.988 | 0.716 | 0.686 ng/mL and 0.757 ng/mL and 0.705 ng/mL | 19.825 | 14.5 | 12.6
O=C1CN(c2ccccc2)C(=O)N1Cc1nc(-c2ccco2)no1 [L01.033, 3-{[3-(furan-2-yl)-1,2,4-oxadiazol-5-yl]methyl}-1-phenylimidazolidine-2,4-dione] | 2.698 | 0.193 | 0.197 ng/ml (2×) and 0.186 ng/ml | 11.108 | 8.13 | 8
CS(=O)(=O)c1cc(NC(=O)Nc2ccccc2)ccc1Cl [L01.035, 3-(4-chloro-3-methane-sulfonylphenyl)-1-phenylurea] | 3.211 | 0.230 | 0.321 ng/mL and 0.189 ng/mL and 0.181 ng/mL | 11.044 | 8.08 | 8.46
N#Cc1ccc(NC(=O)Nc2ccccc2)cc1 [L01.038, 1-(4-cyanophenyl)-3-phenylurea] | 1.956 | 0.140 | 0.166 ng/mL and 0.127 ng/mL and 0.128 ng/mL | 16.337 | 12 | 12.8
Cc1ccc(NC(=O)Nc2ccccc2)cc1NC(=O)NC(C)C [L01.041, 3-(4-methyl-3-[(propan-2-yl)carbamoylamino}-phenyl)-1-phenylurea] | 23.826 | 1.708 | 1.508 ng/mL and 1.847 ng/mL and 1.769 ng/mL | 32.832 | 24 | 24.4
O=C(NCc1nc(-c2cccnc2)no1)Nc1ccc([N+](=O)[O-])cc1Cl [L01.042, 1-(2-chloro-4-nitrophen-yl)-3-{[3-(pyridin-3-yl)-1,2,4-oxadiazol-5-yl]-methyl}urea] | 0.826 | 0.059 | 0.060 ng/mL and 0.069 ng/mL and 0.048 ng/mL | 9.993 | 7.31 | 7.09
COc1ccccc1NC(=O)NCc1nc(-c2cccnc2)no1 [L01.043, 1-(2-methoxyphenyl)-3-{[3-(pyridin-3-yl)-1,2,4-oxadiazol-5-yl]methyl}-urea] | 3.697 | 0.265 | 0.282 ng/mL and 0.272 ng/mL and 0.242 ng/mL | 11.039 | 8.08 | 8.07
O=C(Nc1ccccc1)Nc1cccc(N2CCOC2=O)c1 [L01.045, 1-[3-(2-oxo-1,3-oxazol-idin-3-yl)phenyl]-3-phenylurea] | 1.568 | 0.112 | 0.103 ng/mL and 0.116 ng/mL and 0.118 ng/mL | 7.094 | 5.19 | 5.98
CC(C)c1ccc(NC(=O)Nc2ccccc2)cc1 [L01.047, 1-phenyl-3-[4-(propan-2-yl)phenyl]urea] | 7.117 | 0.510 | 0.505 ng/mL and 0.513 ng/mL and 0.512 ng/mL | 16.514 | 12.1 | 12.1
O=C1CN(c2ccccc2)C(=O)N1Cc1nc(-c2ccc(Cl)cc2)no1 [L01.049, 3-{[3-(4-chlorophenyl)-1,2,4-oxadiazol-5-yl]-methyl}-1-phenylimid-azolidine-2,4-dione] | 4.189 | 0.300 | 0.330 ng/mL and 0.251 ng/mL and 0.319 ng/mL | 16.093 | 11.8 | 12.6
